# From patent US12187721B2, “Protein tyrosine phosphatase inhibitors” (Array BioPharma Inc., priority 2018, dated 2025)
# Structures can show the parent of a compound that is named as a salt. Where two headings read alike, the source gives them in different places.
# Legend:
# [1] = biological target: T1, full-length SHP2 (His6-tagged SHP2(2-527)) (Homo sapiens, UniProt Q06124); assay: SHP2 Enzymatic Assay (fluorescence intensity kinetic assay, DiFMUP hydrolysis); type: biochemical
# T1 construct: His6-tagged SHP2(2-527); His6; made in house; host or cells: E. coli
# T1 sequence (Q06124 2-527): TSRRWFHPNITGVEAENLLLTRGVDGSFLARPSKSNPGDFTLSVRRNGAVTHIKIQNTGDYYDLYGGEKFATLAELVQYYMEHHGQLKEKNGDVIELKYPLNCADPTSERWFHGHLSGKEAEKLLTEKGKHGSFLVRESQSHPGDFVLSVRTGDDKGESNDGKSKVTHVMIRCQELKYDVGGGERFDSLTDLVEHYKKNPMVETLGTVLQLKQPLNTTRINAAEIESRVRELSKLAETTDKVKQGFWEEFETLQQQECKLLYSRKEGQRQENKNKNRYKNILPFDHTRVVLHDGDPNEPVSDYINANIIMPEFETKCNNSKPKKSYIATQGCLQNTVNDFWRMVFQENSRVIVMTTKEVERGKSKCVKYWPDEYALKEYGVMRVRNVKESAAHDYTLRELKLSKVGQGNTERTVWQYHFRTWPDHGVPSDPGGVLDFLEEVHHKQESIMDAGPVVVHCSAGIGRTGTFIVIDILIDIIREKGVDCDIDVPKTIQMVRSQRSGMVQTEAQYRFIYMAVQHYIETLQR
# In short: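 1 nM His6-SHP2(2-527), activated by 1 μM bis-phosphopeptide, hydrolysed 50 μM DiFMUP in 25 mM HEPES pH 7.4 with 1 mM DTT, 50 mM KCl and 2% DMSO. DiFMU fluorescence (Ex 355/Em 460 nm) was read kinetically for 15 min at ambient temperature.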
# [2] = system: ERK1/2 (Thr202/Tyr204) phosphorylation in KYSE520 cells; assay: Cellular Phospho-p44/42 MAPK (Erk 1/2) (Thr202/Tyr204) Assay (In-Cell Western); type: cell-based; conditions: Homo sapiens, KYSE-520, 1 h, read-out: Biological Example 2 IC50 (nM)
# Method: KYSE520 cells were obtained from DSMZ and grown in RPMI supplemented with 10% fetal bovine serum, pennicillin/streptomycin, 2 mM L-alanyl-L-glutamine dipeptide in 0.85% NaCl (Glutamax™), non-essential amino acids, and sodium pyruvate. Cells were plated in 96-well plates at 30,000 cells/well and allowed to attach overnight at 37° C./5% CO2. Cells were treated with compounds prepared as a 10-point, 1:3 dilution series (range: 20 μM-1 nM), with a final DMSO concentration of 0.5%. After 1 hour incubation, cells were fixed in 3.7% formaldehyde in Dulbecco's phosphate-buffered saline (“dPBS”) at room temperature for 20 minutes. Cells were then washed with dPBS and permeabilized in 100% MeOH at room temperature for 10 minutes. Following permeabilization, cells were washed in dPBS and incubated in LI-COR Blocking Buffer (LI-COR Biosciences, Cat #927-40000) for 1 hour or longer. Plates were then incubated with an antibody specific for the MEK-dependent ERK1/2 phosphorylation sites, threonine 202 and tyrosine 204 (Cell Signaling Technologies; Cat #9101), downstream of SHP2 in the MAP kinase signal transduction pathway, as well as GAPDH (Millipore; Cat #MAB374). pErk1/2 (Thr202/Tyr204) antibody was diluted in LI-COR blocking buffer containing 0.05% polysorbate-20 (Tween-20) at 1:250; GAPDH was diluted at 1:2,500. The plates were incubated overnight at 4° C. After washing with PBS/0.05% Tween-20, the cells were incubated with fluorescently-labeled secondary antibodies (Anti-rabbit-Alexa Flour680, Invitrogen Cat #A21109; Anti-mouse-IRDye800CW, Li-cor Bioscieces Cat #926-32210, both at 1:1000 dilution) for 1 hour. Cells were then washed, as above, and analyzed for fluorescence at both 680 nm and 800 nm wavelengths using the Aerius Infrared Imaging System (LI-COR Biosciences, Model 9250). Phosphorylated Erk1/2 (Thr202/Tyr204) signal was normalized to GAPDH signal for each well. IC50 values were calculated from the normalized values using a 4-parameter fit in BioAssay software. […] The reported IC50 in Table 2 may be from a single assay or the mean of multiple assays.
# [3] = full-length SHP2 with 1 μM activating peptide, 50 μM DiFMUP, single assay or mean of multiple assays, read-out: Biological Example 1 IC50
SMILES,IC50 [1],IC50 [2],"IC50 [1, 3]"
"Nc1nccc(Sc2ccc3nc(N4CCC5(CC4)CC(F)(F)C[C@H]5N)cnc3n2)c1Cl (stereo in doubt) [Example 218, 8-(6-((2-amino-3-chloropyridin-4-yl)thio)pyrido[2,3-b]pyrazin-2-yl)-3,3-difluoro-8-azaspiro[4.5]decan-1-amine]",47 nM,67 nM,–
"CC1(N)CCN(c2cnc3nc(Sc4ccnc(N)c4Cl)ccc3n2)CC1 [Example 1, 4-((2-(4-amino-4-methylpiperidin-1-yl)pyrido[2,3-b]pyrazin-6-yl)thio)-3-chloropyridin-2-amine]",–,59 nM,33 nM
"C[C@@H]1OCC2(CCN(c3cnc4nc(Sc5cccc(Cl)c5Cl)ccc4n3)CC2)[C@@H]1N [Example 4, (3S,4S)-8-(6-((2,3-dichlorophenyl)thio)pyrido[2,3-b]pyrazin-2-yl)-3-methyl-2-oxa-8-azaspiro[4,5]decan-4-amine]",64 nM,550 nM,–
"C[C@@H]1OCC2(CCN(c3cnc4nc(Sc5ccnc(N)c5Cl)ccc4n3)CC2)[C@@H]1N [Example 13, (3S,4S)-8-(6-((2-amino-3-chloropyridin-4-yl)thio)pyrido[2,3-b]pyrazin-2-yl)-3-methyl-2-oxa-8-azaspiro[4,5]decan-4-amine]",84 nM,79 nM,–
"C[C@@H]1OCC2(CCN(c3cnc4nc(Sc5ccnc(N6CCCC6)c5Cl)ccc4n3)CC2)[C@@H]1N [Example 25, (3S,4S)-8-(6-((3-chloro-2-(pyrrolidin-1-yl)pyridin-4-yl)thio)pyrido[2,3-b]pyrazin-2-yl)-3-methyl-2-oxa-8-azaspiro[4.5]decan-4-amine]",100 nM,650 nM,–
"CNc1nccc(Sc2ccc3nc(N4CCC5(CC4)CO[C@@H](C)[C@H]5N)cnc3n2)c1Cl [Example 33, (3S,4S)-8-(6-((3-chloro-2-(methylamino)pyridin-4-yl)thio)pyrido[2,3-b]pyrazin-2-yl)-3-methyl-2-oxa-8-azaspiro[4.5]decan-4-amine]",100 nM,80 nM,–
"Nc1nccc(Sc2ccc3nc(N4CCC[C@@H](N)CC4)cnc3n2)c1Cl [Example 41, (R)-1-(6-((2-amino-3-chloropyridin-4-yl)thio)pyrido[2,3-b]pyrazin-2-yl)azepan-4-amine]",56 nM,110 nM,–
"Cc1nccc(Sc2ccc3nc(N4CCC(N)(CO)CC4)cnc3n2)c1Cl [Example 57, (4-amino-1-(6-((3-chloro-2-methylpyridin-4-yl)thio)pyrido[2,3-b]pyrazin-2-yl)piperidin-4-yl)methanol]",49 nM,91 nM,–
"Cc1nccc(Sc2ccc3nc(N4[C@H]5CC[C@H]4CC(N)C5)cnc3n2)c1Cl (stereo partly drawn) [Example 67, (1R,3s,5S)-8-(6-((3-chloro-2-methylpyridin-4-yl)thio)pyrido[2,3-b]pyrazin-2-yl)-8-azabicyclo[3.2.1]octan-3-amine dihydrochloride]",42 nM,48 nM,–
"C[C@@H]1OCC2(CCN(c3cnc4nc(Sc5ccnc(N6CCC[C@H]6CO)c5Cl)ccc4n3)CC2)[C@@H]1N [Example 71, ((S)-1-(4-((2-((3S,4S)-4-amino-3-methyl-2-oxa-8-azaspiro[4.5]decan-8-yl)pyrido[2,3-b]pyrazin-6-yl)thio)-3-chloropyridin-2-yl)pyrrolidin-2-yl)methanol]",120 nM,176 nM,–
"Nc1nccc(Sc2ccc3nc(N4CCC5(CC4)Cc4ccccc4[C@H]5N)cnc3n2)c1Cl [Example 76, (S)-1′-(6-((2-amino-3-chloropyridin-4-yl)thio)pyrido[2,3-b]pyrazin-2-yl)-1,3-dihydrospiro[indene-2,4′-piperidin]-1-amine]",–,8 nM,28 nM
"C[C@@H]1OCC2(CCN(c3cnc4nc(Sc5ccnc(N6CCC(O)CC6)c5Cl)ccc4n3)CC2)[C@@H]1N [Example 78, 1-(4-((2-((3S,4S)-4-amino-3-methyl-2-oxa-8-azaspiro[4.5]decan-8-yl)pyrido[2,3-b]pyrazin-6-yl)thio)-3-chloropyridin-2-yl)piperidin-4-ol]",331 nM,87 nM,–
"CN[C@H]1CCCN(c2cnc3nc(Sc4ccnc(N)c4Cl)ccc3n2)CC1 [Example 91, (S)-1-(6-((2-amino-3-chloropyridin-4-yl)thio)pyrido[2,3-b]pyrazin-2-yl)-N-methylazepan-4-amine]",106 nM,317 nM,–
"N[C@@H]1c2cccnc2CC12CCN(c1cnc3nc(Sc4ccnc(NCCO)c4Cl)ccc3n1)CC2 [Example 108, (S)-2-((4-((2-(5-amino-5,7-dihydrospiro[cyclopenta[b]pyridine-6,4′-piperidin]-1′-yl)pyrido[2,3-b]pyrazin-6-yl)thio)-3-chloropyridin-2-yl)amino)ethan-1-ol]",84 nM,11 nM,–
"Nc1nccc(Sc2ccc3nc(N4CCC5(CC4)Cc4ncc(F)cc4[C@H]5N)cnc3n2)c1Cl [Example 117, (S)-1′-(6-((2-amino-3-chloropyridin-4-yl)thio)pyrido[2,3-b]pyrazin-2-yl)-3-fluoro-5,7-dihydrospiro[cyclopenta[b]pyridine-6,4′-piperidin]-5-amine]",–,6 nM,50 nM
"Nc1nccc(Sc2ccc3nc(N4CCC5(CC4)Cc4ncccc4[C@H]5N)cnc3n2)c1Cl [Example 125, (S)-1′-(6-((2-amino-3-chloropyridin-4-yl)thio)pyrido[2,3-b]pyrazin-2-yl)-5,7-dihydrospiro[cyclopenta[b]pyridine-6,4′-piperidin]-5-amine]",–,5 nM,38 nM
"CC(C)(C#N)CNc1nccc(Sc2ccc3nc(N4CCC(C)(N)CC4)cnc3n2)c1Cl [Example 134, 3-((4-((2-(4-amino-4-methylpiperidin-1-yl)pyrido[2,3-b]pyrazin-6-yl)thio)-3-chloropyridin-2-yl)amino)-2,2-dimethylpropanenitrile]",238 nM,810 nM,–
"C[C@@H]1OCC2(CCN(c3cnc4nc(Sc5ccnc6[nH]ncc56)ccc4n3)CC2)[C@@H]1N [Example 214, (3S,4S)-8-(6-((1H-pyrazolo[3,4-b]pyridin-4-yl)thio)pyrido[2,3-b]pyrazin-2-yl)-3-methyl-2-oxa-8-azaspiro[4.5]decan-4-amine]",304 nM,–,–
"Nc1nccc(Sc2ccc3nc(N4CCO[C@@H]5CNC[C@H]54)cnc3n2)c1Cl [Example 215, 3-chloro-4-((2-((4aR,7aR)-hexahydropyrrolo[3,4-b][1,4]oxazin-4(4aH)-yl)pyrido[2,3-b]pyrazin-6-yl)thio)235yridine-2-amine]",780 nM,–,–
"C[C@H]1CC[C@H](N)CN1c1cnc2nc(Sc3ccnc(N)c3Cl)ccc2n1 [Example 216, 4-((2-((2S,5S)-5-amino-2-methylpiperidin-1-yl)pyrido[2,3-b]pyrazin-6-yl)thio)-3-chloropyridin-2-amine]",3080 nM,–,–
"C[C@@H]1OCC2(CCN(c3cnc4nc(Sc5ncnc(N)c5Cl)ccc4n3)CC2)[C@@H]1N [Example 217, (3S,4S)-8-(6-((6-amino-5-chloropyrimidin-4-yl)thio)pyrido[2,3-b]pyrazin-2-yl)-3-methyl-2-oxa-8-azaspiro[4.5]decan-4-amine]",845 nM,–,–
"COc1ccc2c(c1)[C@@H](N)C1(CCN(c3cnc4nc(Sc5ccnc(N)c5Cl)ccc4n3)CC1)C2 [Example 219, (S)-1′-(6-((2-amino-3-chloropyridin-4-yl)thio)pyrido[2,3-b]pyrazin-2-yl)-6-methoxy-1,3-dihydrospiro[indene-2,4′-piperidin]-1-amine]",4190 nM,–,–
"Nc1nccc(Sc2ccc3nc(N4CCC5(CC4)Cc4c(Cl)cccc4[C@@H]5N)cnc3n2)c1Cl [Example 220, (R)-1′-(6-((2-amino-3-chloropyridin-4-yl)thio)pyrido[2,3-b]pyrazin-2-yl)-4-chloro-1,3-dihydrospiro[indene-2,4′-piperidin]-1-amine]",96 nM,–,–
"C[C@@H]1OCC2(CCN(c3cnc4nc(Sc5cccnc5C(F)(F)F)ccc4n3)CC2)[C@@H]1N [Example 221, (3S,4S)-3-methyl-8-(6-((2-(trifluoromethyl)pyridin-3-yl)thio)pyrido[2,3-b]pyrazin-2-yl)-2-oxa-8-azaspiro[4.5]decan-4-amine]",183 nM,–,–
